Test results published in patent publication US11753363B2, “13-oxidized ingenol derivative and use thereof” (Tianjin Pharmaceutical Da Ren Tang Group Corp., Ltd. …, priority 2017, dated 2023).
In brackets after ≈: the same amount, converted by molar mass.

Tests used:
[1] = test system: A549 (human lung cancer cells); experiment: Inhibition of proliferation of tumor cell lines (MTT), A549; format: cell-based; conditions: Homo sapiens, A549, 72 h, read-out: IC50 value of compound for inhibition of proliferation of tumor cell lines, A549
Procedure: (§1) In this example, the inhibitory activity of compounds of the present invention against proliferation of seven human tumor cell lines and mouse B16-F10 melanoma cells was tested in vitro, and the IC50 value (50% inhibitory concentration) of compounds against each tumor cell line was calculated.
(§2) The seven human tumor cell lines are: MCF-7 (human breast cancer cells), LOVO (human colon cancer cells), A549 (human lung cancer cells), BGC-823 (human gastric cancer cells), SMMC-7721 (human liver cancer cells), K562 (human leukemia cells), and HeLa (human cervical cancer cells).
(§3) IC50 values of the compounds for A549, BGC-823, LOVO, MCF-7, SMMC-7721, HeLa, and B16-F10 cells were tested. The above cells were routinely cultured in 1640 nutrient solution containing 10% calf serum, with passage for 1 time every 2 days, and the cells in logarithmic growth phase were taken for experiments. After the A549, BGC-823, LOVO, MCF-7, SMMC-7721, HeLa and B16-F10 cells in logarithmic growth phase were subjected to 0.25% trypsin digestion, they were blown into a single cell suspension, and then the cell concentration was adjusted to about 1×10^5·mL^−1 using RPMI 1640 solution containing 10% calf serum. The cells were seeded in a 96-well culture plate at 100 μL per well, and cultured for 24 hours until the cells were attached. K562 cells were taken and centrifuged and diluted into 2×10^5·mL^−1 single cell suspension with RPMI 1640 solution containing 10% calf serum, and inoculated into a 96-well culture plate at 100 μL per well.
(§4) 100 μL of sample solution with different concentrations to be tested were added to the above 96-well plate, each concentration was added to 4 wells in parallel, and the cell control group was added with an equal volume of RPMI 1640 medium containing 10% calf serum to make a reaction volume of 200 μL. After incubating in an incubator at 37° C., 5% CO2 for 72 h, 10 μL of 5 mg·mL^−1 MTT solution was added to each well, and incubated at 37° C. for 4 h. The supernatant was carefully aspirated, 180 μL of DMSO was added to each well followed by shaking, and the absorbance (OD) value was measured at 570 nm on the microplate reader. The inhibition rate was calculated, and regression equation was established with the logarithmic value of the sample concentration and the inhibition rate (IR) to find the IC50 value of the compound against the cells to be tested. IR (%)=(1−OD value of the experimental group/OD value of the cell control group)×100%

[2] = test system: BGC-823 (human gastric cancer cells); experiment: Inhibition of proliferation of tumor cell lines (MTT), BGC-823; format: cell-based; conditions: Homo sapiens, BGC-823, 72 h, read-out: IC50 value of compound for inhibition of proliferation of tumor cell lines, BGC-823
Procedure: as §1, §2, §3, §4

[3] = test system: LOVO (human colon cancer cells); experiment: Inhibition of proliferation of tumor cell lines (MTT), LOVO; format: cell-based; conditions: Homo sapiens, 72 h, read-out: IC50 value of compound for inhibition of proliferation of tumor cell lines, LOVO
Procedure: as §1, §2, §3, §4

[4] = test system: K562 (human leukemia cells); experiment: Inhibition of proliferation of tumor cell lines (MTT), K562; format: cell-based; conditions: Homo sapiens, K562, 72 h, read-out: IC50 value of compound for inhibition of proliferation of tumor cell lines, K562
Procedure: as §1, §2, §3, §4

[5] = test system: SMMC-7721 (human liver cancer cells); experiment: Inhibition of proliferation of tumor cell lines (MTT), SMMC-7721; format: cell-based; conditions: Homo sapiens, SMMC-7721, 72 h, read-out: IC50 value of compound for inhibition of proliferation of tumor cell lines, SMMC-7721
Procedure: as §1, §2, §3, §4

[6] = test system: MCF-7 (human breast cancer cells); experiment: Inhibition of proliferation of tumor cell lines (MTT), MCF-7; format: cell-based; conditions: Homo sapiens, MCF7, MCF-7, 72 h, read-out: IC50 value of compound for inhibition of proliferation of tumor cell lines, MCF-7
Procedure: as §1, §2, §3, §4

[7] = test system: HeLa (human cervical cancer cells); experiment: Inhibition of proliferation of tumor cell lines (MTT), HeLa; format: cell-based; conditions: Homo sapiens, 72 h, read-out: IC50 value of compound for inhibition of proliferation of tumor cell lines, HeLA
Procedure: as §1, §2, §3, §4

[8] = test system: mouse B16-F10 melanoma cells; experiment: Inhibition of proliferation of tumor cell lines (MTT), B16-F10; format: cell-based; conditions: Mus musculus, B16-F10, 72 h, read-out: IC50 value of compound for inhibition of proliferation of tumor cell lines, B16-F10
Procedure: as §1, §3, §4

[9] = test system: neutrophilic granulocytes; experiment: Neutrophil oxidative burst (luminol chemiluminescence); format: cell-based; conditions: Neutrophil, rat neutrophils, (Csample−Ccontrol)/Ccontrol×100%, read-out: Efficiency of compounds in stimulating neutrophil oxidative burst; for activation at 0.1 µg/mL: 0.1 μg/mL; for activation at 3 µg/mL: 3 μg/mL
Procedure: This example investigated the effect of compound on neutrophil oxidative burst and calculated the efficiency of each compound in stimulating neutrophil oxidative burst.
Blood was taken from the abdominal aorta of rat. The neutrophilic granulocytes were isolated by the operational procedure of the rat peripheral blood neutrophil isolation kit. The neutrophilic granulocytes were re-suspended by Hanks, and were plated in a 96-well white plate at 1×10^5 cells/well, 80 μL/well; 1 mM of Luminol was added at 10 μL/well; 10 μL of the sample was added to each well, and the degree of oxidative burst was evaluated by chemiluminescence. Calculation formula of Efficiency: Efficiency (%)=(Csample−Ccontrol)/Ccontrol×100%

[10] = test system: release of IL-8 by human keratinocytes (HaCaT); experiment: Release of IL-8 by human keratinocytes (HaCaT), IL-8 Elisa; format: cell-based; conditions: Homo sapiens, HaCaT, 24 h, (Csample−Ccontrol)/Ccontrol×100%, read-out: Efficiency of compound in stimulating the release of IL-8 by HaCaT cells; for activation at 0.1 µg/mL: 0.1 μg/mL; for activation at 1 µg/mL: 1 μg/mL
Procedure: This Example investigated the effect of compound on release of IL-8 by human keratinocytes (HaCaT) and calculated the efficiency of each compound in stimulating the release of IL-8 by human keratinocytes (HaCaT).
Hacat cells were cultured in MEM+10% FBS under the conditions of 37° C., 5% CO2, and when the cells reached 80-95% fusion, they were inoculated into a 96-well culture plate (1×10^4 cells/well) at 100 μL/well, and incubated for 18-24 h. The supernatant was discarded and the cells were incubated for 3-6 h in 1% FBS medium. Different concentrations of the sample solution of compound to be tested were added to each well, and the cell control group was added with an equal volume of 1% FBS medium at 10 μL/well, and incubated for 24 h. The supernatant was taken and tested according to the operation sequence of the IL-8 Elisa kit. Calculation formula of Efficiency: Efficiency (%)=(Csample−Ccontrol)/Ccontrol×100%

B16-F0 mouse melanoma = experiment: Antitumor activity in B16-F0 mouse melanoma model; format: in vivo; conditions: female C57BL/6J mice, intradermal B16 tumor, skin administration once per day for 3 days, 20 μL/mouse, tumor weight on day 19
Procedure: This Example investigated the antitumor activity of compounds in B16-F0 mouse melanoma model.
In vitro passage of B16-F0 tumor source was inoculated subcutaneously into female C57BL/6J mice, and passage was carried out after tumor formation. After passage, the subcutaneous tumor tissue of the tumor-bearing mice was taken and ground with 3 times amount of physiological saline to form a tumor cell suspension, and 0.2 mL/mouse of which was inoculated subcutaneously into the axilla of forelimb of mice, which were used as the tumor-source mice. Female C57BL/6J mice were taken and their hair in an area of 4 cm^2 on the neck and back was shaven. After anesthesia with diethyl ether, B16 tumor source was inoculated intradermally at 0.05 mL/mouse. After 3 days of inoculation, the skin was continuously administered for 3 days, once per day, 20 μL/mouse each time, and in the test, a solvent group as a negative control group was included. On the 19th day of the experiment, the experiment was terminated. After the mice were euthanized, the intradermally transplanted tumors were completely separated and excised, and the tumor was weighed to calculate the tumor inhibition rate. Calculation formula of tumor inhibition rate: tumor inhibition rate (%)=(Wmodel group−Wadministration group)/Wmodel group×100%
The tumor growths of the experimental group and the solvent control group were compared to evaluate the antitumor activity of each compound, and the compound with P<0.05 was considered to be effective.

Compound	IC50 [1] [µg/mL]	IC50 [2] [µg/mL]	IC50 [3] [µg/mL]	IC50 [4] [µg/mL]	IC50 [5] [µg/mL]	IC50 [6] [µg/mL]	IC50 [7] [µg/mL]	IC50 [8] [µg/mL]	activation at 0.1 µg/mL [9] [%]	activation at 0.1 µg/mL [10] [%]	Tumor-inhibition rate (B16-F0 mouse melanoma) [%]	activation at 3 µg/mL [9] [%]	activation at 1 µg/mL [10] [%]
CCCCCCCCCCCC(=O)O[C@@]12C[C@@H](C)[C@]34C=C(C)[C@H](OC(=O)C(C)(C)C)[C@@]3(O)[C@H](O)C(CO)=C[C@H](C4=O)[C@@H]1C2(C)C [3-O-trimethylacetyl-13-O-dodecanoyl-ingenol]	17.5 (≈ 27.7 µM)	6.81 (≈ 10.8 µM)	9.68 (≈ 15.3 µM)	< 0.2	15.1 (≈ 23.9 µM)	8.79 (≈ 13.9 µM)	14.2 (≈ 22.5 µM)	7.7 (≈ 12.2 µM)	205	83.7	47.4	–	–
C/C=C(/C)C(=O)O[C@H]1C(C)=C[C@]23C(=O)[C@@H](C=C(CO)[C@@H](O)[C@]12O)[C@@H]1C(C)(C)[C@]1(OC(=O)CCCCCCCCCCC)C[C@H]3C [Compound 9, 3-O-angeloyl-13-O-dodecanoyl-ingenol]	10.8 (≈ 17.2 µM)	0.85 (≈ 1.35 µM)	10.1 (≈ 16.1 µM)	1.87 (≈ 2.97 µM)	8.86 (≈ 14.1 µM)	10.1 (≈ 16.1 µM)	12.5 (≈ 19.9 µM)	10.4 (≈ 16.5 µM)	–	–	71.8	77	23.5
CCCCCCCCCCCC(=O)O[C@@]12C[C@@H](C)[C@]34C=C(C)[C@H](O)[C@@]3(O)[C@H](O)C(COC(C)=O)=C[C@H](C4=O)[C@@H]1C2(C)C [Compound 12, 20-O-acetyl-13-O-dodecanoyl-ingenol]	16 (≈ 27.2 µM)	10.3 (≈ 17.5 µM)	6.71 (≈ 11.4 µM)	0.06 (≈ 0.102 µM)	12.7 (≈ 21.6 µM)	12.7 (≈ 21.6 µM)	32.3 (≈ 54.9 µM)	14 (≈ 23.8 µM)	–	–	40.7	88.3	37
C/C=C(/C)C(=O)O[C@H]1C(C)=C[C@]23C(=O)[C@@H](C=C(CO)[C@@H](O)[C@]12O)[C@@H]1C(C)(C)[C@]1(OC(=O)CCC)C[C@H]3C [Compound 16, 3-O-angeloyl-13-O-butanoyl-ingenol]	46.8 (≈ 90.6 µM)	44.1 (≈ 85.4 µM)	36.9 (≈ 71.4 µM)	4.21 (≈ 8.15 µM)	43.5 (≈ 84.2 µM)	38.4 (≈ 74.3 µM)	61.1 (≈ 118 µM)	17 (≈ 32.9 µM)	–	84.6	89.6	80.1	–
C/C=C(/C)C(=O)O[C@H]1C(C)=C[C@]23C(=O)[C@@H](C=C(CO)[C@@H](O)[C@]12O)[C@@H]1C(C)(C)[C@]1(OC(=O)CCCCC)C[C@H]3C [Compound 17, 3-O-angeloyl-13-O-hexanoyl-ingenol]	21.7 (≈ 39.8 µM)	21.7 (≈ 39.8 µM)	16.9 (≈ 31 µM)	2.93 (≈ 5.38 µM)	21.1 (≈ 38.7 µM)	18.6 (≈ 34.1 µM)	18.6 (≈ 34.1 µM)	6.5 (≈ 11.9 µM)	82.1	121	68.8	–	–
C/C=C(/C)C(=O)O[C@H]1C(C)=C[C@]23C(=O)[C@@H](C=C(CO)[C@@H](O)[C@]12O)[C@@H]1C(C)(C)[C@]1(OC(=O)CCCCCCC)C[C@H]3C [Compound 18, 3-O-angeloyl-13-O-octanoyl-ingenol]	13.6 (≈ 23.7 µM)	10.1 (≈ 17.6 µM)	8.47 (≈ 14.8 µM)	1.41 (≈ 2.46 µM)	12.4 (≈ 21.7 µM)	11.7 (≈ 20.4 µM)	12.2 (≈ 21.3 µM)	8.43 (≈ 14.7 µM)	69.1	29.8	59.0	–	–
C/C=C(/C)C(=O)O[C@H]1C(C)=C[C@]23C(=O)[C@@H](C=C(CO)[C@@H](O)[C@]12O)[C@@H]1C(C)(C)[C@]1(OC(=O)CCCCCCCCC)C[C@H]3C [Compound 19, 3-O-angeloyl-13-O-decanoyl-ingenol]	12.6 (≈ 21 µM)	14 (≈ 23.3 µM)	7.9 (≈ 13.1 µM)	2.13 (≈ 3.55 µM)	13.4 (≈ 22.3 µM)	9.3 (≈ 15.5 µM)	8.58 (≈ 14.3 µM)	9.85 (≈ 16.4 µM)	43.5	144	65.7	–	–
CCCCCCCCCCCC(=O)O[C@@]12C[C@@H](C)[C@]34C=C(C)[C@H](OC(=O)C(C)=C(C)C)[C@@]3(O)[C@H](O)C(CO)=C[C@H](C4=O)[C@@H]1C2(C)C [Compound 21, 3-O-(2,3-dimethylbutenoyl)-13-O-dodecanoyl-ingenol]	11.8 (≈ 18.4 µM)	10.4 (≈ 16.2 µM)	12.4 (≈ 19.3 µM)	2.06 (≈ 3.2 µM)	12.8 (≈ 19.9 µM)	8.32 (≈ 12.9 µM)	15.3 (≈ 23.8 µM)	15.1 (≈ 23.5 µM)	–	127	64.1	34.8	–
